Measured values published in ChEMBL document CHEMBL5614382, “Discovery of a new 1-(phenylsulfonyl)-1H-indole derivative targeting the EphA2 receptor with antiproliferative activity on U251 glioblastoma cell line” (Eur J Med Chem, 2024).

Key:
[1] = target: T1, Ephrin type-A receptor 6 (Mus musculus, UniProt Q62413); assay: Displacement of biotinylated Fc-tagged ephrin-A1 from recombinant N/C-terminal 6-his tagged mouse EphA6 (Ser28 to Gln546 residues) preincubated for 1 hr followed by ephrin-A1-Fc addition and measured after 4 to 5 hrs by ELISA assay
T1 sequence (Q62413 whole entry): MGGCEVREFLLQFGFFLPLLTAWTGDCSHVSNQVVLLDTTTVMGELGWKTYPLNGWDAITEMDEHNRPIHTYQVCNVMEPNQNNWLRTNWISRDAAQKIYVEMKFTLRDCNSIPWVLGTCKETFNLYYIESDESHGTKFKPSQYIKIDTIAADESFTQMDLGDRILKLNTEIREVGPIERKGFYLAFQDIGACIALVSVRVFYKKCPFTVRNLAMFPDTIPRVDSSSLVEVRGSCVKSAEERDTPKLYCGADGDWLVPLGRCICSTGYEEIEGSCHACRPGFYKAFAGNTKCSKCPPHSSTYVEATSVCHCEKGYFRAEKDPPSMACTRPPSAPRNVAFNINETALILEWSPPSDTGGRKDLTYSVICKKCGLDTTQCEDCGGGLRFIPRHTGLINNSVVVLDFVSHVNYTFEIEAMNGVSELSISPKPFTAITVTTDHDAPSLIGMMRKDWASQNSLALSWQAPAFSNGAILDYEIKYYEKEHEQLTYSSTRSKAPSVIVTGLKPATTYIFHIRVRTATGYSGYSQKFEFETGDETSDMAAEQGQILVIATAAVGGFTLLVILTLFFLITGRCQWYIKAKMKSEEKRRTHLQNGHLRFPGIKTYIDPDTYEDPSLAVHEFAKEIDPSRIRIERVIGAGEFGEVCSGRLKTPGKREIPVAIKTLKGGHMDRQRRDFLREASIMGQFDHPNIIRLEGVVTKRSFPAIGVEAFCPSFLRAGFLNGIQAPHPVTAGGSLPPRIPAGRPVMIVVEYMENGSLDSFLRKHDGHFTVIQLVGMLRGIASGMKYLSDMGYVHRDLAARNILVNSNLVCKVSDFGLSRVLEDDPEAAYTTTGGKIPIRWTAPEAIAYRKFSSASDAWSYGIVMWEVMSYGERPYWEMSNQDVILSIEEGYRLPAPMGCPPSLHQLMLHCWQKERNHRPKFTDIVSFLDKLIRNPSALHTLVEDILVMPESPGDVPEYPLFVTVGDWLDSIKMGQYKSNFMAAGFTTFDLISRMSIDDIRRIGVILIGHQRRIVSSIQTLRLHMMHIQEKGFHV

[2] = target: T2, Ephrin type-B receptor 1 (Rattus norvegicus, UniProt P09759); assay: Displacement of biotinylated Fc-tagged ephrin-B1 from N/C-terminal recombinant rat EphB1 (Met18 to Gln538 residues) preincubated for 1 hr followed by ephrin-B1-Fc addition and measured after 4 to 5 hrs by ELISA assay
T2 sequence (P09759 whole entry): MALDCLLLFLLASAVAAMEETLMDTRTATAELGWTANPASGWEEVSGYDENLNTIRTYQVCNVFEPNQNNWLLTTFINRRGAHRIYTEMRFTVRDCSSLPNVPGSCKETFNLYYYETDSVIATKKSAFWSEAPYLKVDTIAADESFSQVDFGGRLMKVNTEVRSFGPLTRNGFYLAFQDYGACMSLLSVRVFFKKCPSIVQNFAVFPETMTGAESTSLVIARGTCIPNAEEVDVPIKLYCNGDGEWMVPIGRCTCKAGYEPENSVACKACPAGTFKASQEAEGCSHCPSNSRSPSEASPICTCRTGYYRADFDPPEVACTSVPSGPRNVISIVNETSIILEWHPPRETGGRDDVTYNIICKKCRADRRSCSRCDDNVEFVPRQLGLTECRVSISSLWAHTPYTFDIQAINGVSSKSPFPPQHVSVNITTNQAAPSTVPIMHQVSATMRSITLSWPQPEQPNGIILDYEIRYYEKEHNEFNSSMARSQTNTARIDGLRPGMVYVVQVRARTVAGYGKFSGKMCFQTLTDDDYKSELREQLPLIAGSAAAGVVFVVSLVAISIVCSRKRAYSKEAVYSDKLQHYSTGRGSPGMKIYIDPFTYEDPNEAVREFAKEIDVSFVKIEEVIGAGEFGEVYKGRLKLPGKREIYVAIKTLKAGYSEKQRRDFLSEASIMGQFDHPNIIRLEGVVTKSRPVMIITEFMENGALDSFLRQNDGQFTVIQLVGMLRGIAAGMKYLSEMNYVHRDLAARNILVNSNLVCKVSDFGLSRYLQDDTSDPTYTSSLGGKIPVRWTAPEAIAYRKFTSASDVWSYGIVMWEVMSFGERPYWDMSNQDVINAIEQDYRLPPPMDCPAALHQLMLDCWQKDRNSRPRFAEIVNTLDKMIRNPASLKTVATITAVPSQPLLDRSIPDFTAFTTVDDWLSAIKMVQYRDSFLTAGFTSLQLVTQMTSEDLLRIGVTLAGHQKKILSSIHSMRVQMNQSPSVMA

| SMILES | IC50 [1] [µM] | IC50 [2] [µM] |
| --- | --- | --- |
| C[C@H](CCC(=O)N[C@H](CC(=O)O)Cc1cn(S(=O)(=O)c2ccccc2)c2ccccc12)[C@H]1CC[C@H]2[C@@H]3CC=C4C[C@@H](O)CC[C@]4(C)[C@H]3CC[C@]12C | 11 | > 30 |
| C[C@H](CCC(=O)N[C@H](CC(=O)O)Cc1cn(S(=O)(=O)c2ccc(C(F)(F)F)cc2)c2ccccc12)[C@H]1CC[C@H]2[C@@H]3CC=C4C[C@@H](O)CC[C@]4(C)[C@H]3CC[C@]12C | 10 | > 30 |
| C[C@H](CCC(=O)N[C@H](CC(=O)O)Cc1c[nH]c2ccccc12)[C@H]1CC[C@H]2[C@@H]3CC=C4C[C@@H](O)CC[C@]4(C)[C@H]3CC[C@]12C | 2.9 | 7.7 |
